Values quoted from earlier work as cited in patent US8486463B1, “Cosmetic composition comprising aloe vera and caprylyl salicylic acid and method of making” (L'Oreal, priority 2012, dated 2013).

Conditions: based on temperature and purity level

In the case of O [water], the pH is given as 7 and the surface tension is given as 55.73 dyne/cm.
